Data: patent EP1976513B1 (priority 2006, dated 2007)
Like-named read-outs stand apart in the source and are kept apart here.

Experiments:
serotonin transporter = target: T1, serotonin transporter (Rattus norvegicus, UniProt P31652); test: biochemical; conditions: rat synaptosomes, serotonin transporter (SERT)
T1 construct: synaptosomes isolated in a 0.32M sucrose buffer from a male Wistar rat cortex; from tissue; host or cells: male Wistar rat cortex synaptosomes

[1] = target: T2, DA Transporter (DAT) Sites in Mouse Brain (Mus musculus, UniProt Q61327); test: Ex vivo [3H] WIN 35428 binding after oral dosing; design: species or system C57BL/6 mice; conditions: for % Transporter Occupancy, DAT: 60 minutes after treatment, vs vehicle; for Mean Specific Binding (dpm) ± S.E.M., DAT: mice sacrificed 60 minutes after treatment, striatum
T2 construct: Striatum was used to determine occupancy of DA transporter sites; from tissue; host or cells: C57BL/6 mouse striatum homogenate
T2 sequence (Q61327 whole entry): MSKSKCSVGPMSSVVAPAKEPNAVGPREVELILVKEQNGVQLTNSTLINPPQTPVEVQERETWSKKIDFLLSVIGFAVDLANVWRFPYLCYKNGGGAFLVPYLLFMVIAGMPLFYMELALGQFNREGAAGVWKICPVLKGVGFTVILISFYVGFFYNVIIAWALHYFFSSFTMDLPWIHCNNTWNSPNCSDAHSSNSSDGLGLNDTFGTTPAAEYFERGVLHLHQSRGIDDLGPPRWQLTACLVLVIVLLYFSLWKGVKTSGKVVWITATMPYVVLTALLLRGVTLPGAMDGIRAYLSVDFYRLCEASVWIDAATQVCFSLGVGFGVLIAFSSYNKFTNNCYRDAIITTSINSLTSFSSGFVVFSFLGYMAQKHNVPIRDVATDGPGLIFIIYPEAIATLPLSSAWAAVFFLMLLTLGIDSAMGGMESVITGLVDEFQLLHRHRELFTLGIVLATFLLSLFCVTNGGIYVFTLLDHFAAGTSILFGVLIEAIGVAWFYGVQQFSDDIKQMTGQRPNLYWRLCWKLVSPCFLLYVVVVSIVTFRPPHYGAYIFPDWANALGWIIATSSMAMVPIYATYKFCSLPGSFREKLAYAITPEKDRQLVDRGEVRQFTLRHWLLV

[2] = target: T3, 5-HT Transporter (SERT) Sites in Mouse Brain (Mus musculus, UniProt Q60857); test: Ex vivo [3H] citalopram binding after oral dosing; design: species or system C57BL/6 mice; conditions: for % Transporter Occupancy, SERT: 60 minutes after treatment, vs vehicle; for Mean Specific Binding (dpm) ± S.E.M., SERT: mice sacrificed 60 minutes after treatment, cortex
T3 construct: Whole brains were removed and cortex and striata dissected out; from tissue; host or cells: C57BL/6 mouse frontal cortex homogenate
T3 sequence (Q60857 whole entry): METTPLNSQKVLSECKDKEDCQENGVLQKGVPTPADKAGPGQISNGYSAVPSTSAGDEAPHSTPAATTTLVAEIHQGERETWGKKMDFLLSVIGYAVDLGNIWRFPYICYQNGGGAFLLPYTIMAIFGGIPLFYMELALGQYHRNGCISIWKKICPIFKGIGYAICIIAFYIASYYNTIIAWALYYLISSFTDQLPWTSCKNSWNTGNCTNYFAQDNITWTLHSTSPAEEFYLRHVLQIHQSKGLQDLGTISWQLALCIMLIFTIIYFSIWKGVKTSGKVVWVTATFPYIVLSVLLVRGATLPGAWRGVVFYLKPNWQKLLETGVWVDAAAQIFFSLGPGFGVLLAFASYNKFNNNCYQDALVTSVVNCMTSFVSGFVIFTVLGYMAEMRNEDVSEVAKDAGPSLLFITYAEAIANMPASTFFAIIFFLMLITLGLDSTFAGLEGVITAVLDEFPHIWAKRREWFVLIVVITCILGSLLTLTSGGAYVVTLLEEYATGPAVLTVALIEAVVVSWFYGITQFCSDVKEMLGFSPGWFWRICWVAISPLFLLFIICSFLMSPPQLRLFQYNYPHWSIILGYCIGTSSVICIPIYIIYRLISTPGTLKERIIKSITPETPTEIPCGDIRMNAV

dopamine transporter = target: T4, dopamine transporter (Rattus norvegicus, UniProt P23977); test: biochemical; conditions: rat synaptosomes, dopamine transporter (DAT); read-out: Rat IC50 (nM) rDAT
T4 construct: synaptosomes isolated in a 0.32 M sucrose buffer from a male Wistar rat striatum; from tissue; host or cells: male Wistar rat striatum synaptosomes
T4 sequence (P23977 whole entry): as the sequence (Q61327 whole entry) above, with P21S, V57A, S194A, R600H, V619L counted along it

[3] = target: human norepinephrine reuptake transporter (Homo sapiens, UniProt P23975); test: cell-based; conditions: recombinant human norepinephrine transporter (NET); read-out: Human IC50 (nM) hNET
Sequence of human norepinephrine reuptake transporter (P23975 whole entry): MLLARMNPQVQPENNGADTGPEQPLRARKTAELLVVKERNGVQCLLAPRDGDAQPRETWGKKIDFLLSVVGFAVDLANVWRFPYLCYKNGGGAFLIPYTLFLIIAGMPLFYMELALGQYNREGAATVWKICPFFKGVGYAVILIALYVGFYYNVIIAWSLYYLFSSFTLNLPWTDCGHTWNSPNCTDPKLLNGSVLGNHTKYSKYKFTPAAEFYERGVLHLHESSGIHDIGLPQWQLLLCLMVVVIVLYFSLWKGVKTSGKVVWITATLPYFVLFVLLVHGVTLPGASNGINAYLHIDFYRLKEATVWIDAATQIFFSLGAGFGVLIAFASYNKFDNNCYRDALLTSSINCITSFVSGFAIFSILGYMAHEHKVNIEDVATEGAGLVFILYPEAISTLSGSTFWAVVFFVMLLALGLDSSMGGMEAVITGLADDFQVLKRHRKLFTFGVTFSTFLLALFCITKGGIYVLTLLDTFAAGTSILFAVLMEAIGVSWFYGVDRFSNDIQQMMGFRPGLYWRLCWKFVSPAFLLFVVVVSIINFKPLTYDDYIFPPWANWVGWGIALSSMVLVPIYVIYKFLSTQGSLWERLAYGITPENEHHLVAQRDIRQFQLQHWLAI

[4] = target: T5, human dopamine reuptake transporter (Homo sapiens, UniProt Q01959); test: cell-based; conditions: recombinant human dopamine transporter (DAT); read-out: Human IC50 (nM) hDAT
T5 construct: expressed in transfected cells; host or cells: CHO-K1 or HEK293
T5 sequence (Q01959 whole entry): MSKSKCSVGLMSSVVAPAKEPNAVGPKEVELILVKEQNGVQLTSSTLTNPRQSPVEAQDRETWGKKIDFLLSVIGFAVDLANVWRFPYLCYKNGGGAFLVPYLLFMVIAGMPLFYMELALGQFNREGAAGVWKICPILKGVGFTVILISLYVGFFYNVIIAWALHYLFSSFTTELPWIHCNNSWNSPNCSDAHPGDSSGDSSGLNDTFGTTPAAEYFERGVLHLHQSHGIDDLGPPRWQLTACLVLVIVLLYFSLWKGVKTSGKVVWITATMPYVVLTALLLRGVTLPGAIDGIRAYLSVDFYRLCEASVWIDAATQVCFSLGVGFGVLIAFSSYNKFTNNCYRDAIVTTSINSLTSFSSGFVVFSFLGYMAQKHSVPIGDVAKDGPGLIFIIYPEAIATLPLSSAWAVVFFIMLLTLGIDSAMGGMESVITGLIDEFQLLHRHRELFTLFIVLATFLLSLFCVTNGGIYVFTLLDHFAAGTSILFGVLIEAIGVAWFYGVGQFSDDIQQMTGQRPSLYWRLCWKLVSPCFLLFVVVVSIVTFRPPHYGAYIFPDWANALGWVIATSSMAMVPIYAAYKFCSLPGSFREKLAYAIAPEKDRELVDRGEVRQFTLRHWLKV

[5] = target: human serotonin reuptake transporter (Homo sapiens, UniProt P31645); test: cell-based; conditions: Human IC50 (nM) hSERT, recombinant human serotonin transporter (SERT)
Sequence of human serotonin reuptake transporter (P31645 whole entry): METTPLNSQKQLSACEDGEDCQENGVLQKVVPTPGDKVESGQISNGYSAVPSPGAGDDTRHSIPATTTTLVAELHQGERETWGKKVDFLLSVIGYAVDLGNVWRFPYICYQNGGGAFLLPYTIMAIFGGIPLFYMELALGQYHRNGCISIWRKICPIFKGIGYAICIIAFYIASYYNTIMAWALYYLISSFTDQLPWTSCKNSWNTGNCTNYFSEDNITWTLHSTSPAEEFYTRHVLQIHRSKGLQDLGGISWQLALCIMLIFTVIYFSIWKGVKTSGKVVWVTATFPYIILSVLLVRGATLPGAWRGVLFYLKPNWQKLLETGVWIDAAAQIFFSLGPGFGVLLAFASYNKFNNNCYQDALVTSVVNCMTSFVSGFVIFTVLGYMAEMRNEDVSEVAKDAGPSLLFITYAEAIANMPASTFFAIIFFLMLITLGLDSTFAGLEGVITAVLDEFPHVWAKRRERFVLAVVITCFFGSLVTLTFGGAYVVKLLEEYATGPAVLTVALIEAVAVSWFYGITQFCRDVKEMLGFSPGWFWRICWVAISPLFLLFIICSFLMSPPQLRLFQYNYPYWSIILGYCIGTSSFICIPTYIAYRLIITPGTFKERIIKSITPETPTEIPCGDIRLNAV

T1 sequence (P31652 whole entry): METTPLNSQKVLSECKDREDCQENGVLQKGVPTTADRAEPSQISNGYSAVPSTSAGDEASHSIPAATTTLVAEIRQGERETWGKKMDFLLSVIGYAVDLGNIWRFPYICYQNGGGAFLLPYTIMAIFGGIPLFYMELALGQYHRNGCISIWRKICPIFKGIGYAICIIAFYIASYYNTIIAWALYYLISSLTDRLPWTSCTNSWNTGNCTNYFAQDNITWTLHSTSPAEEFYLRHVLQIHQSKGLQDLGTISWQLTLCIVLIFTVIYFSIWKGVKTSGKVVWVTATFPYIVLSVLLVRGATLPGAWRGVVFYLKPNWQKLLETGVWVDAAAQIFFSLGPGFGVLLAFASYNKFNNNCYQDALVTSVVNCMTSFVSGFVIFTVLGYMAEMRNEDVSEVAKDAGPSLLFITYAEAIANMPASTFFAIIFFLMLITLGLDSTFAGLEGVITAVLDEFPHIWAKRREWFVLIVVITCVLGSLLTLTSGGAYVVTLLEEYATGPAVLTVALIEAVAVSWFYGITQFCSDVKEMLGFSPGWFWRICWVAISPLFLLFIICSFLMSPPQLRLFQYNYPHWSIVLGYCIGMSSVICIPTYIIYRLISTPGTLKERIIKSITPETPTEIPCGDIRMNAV

## CNC(C)C1(c2ccc3ccccc3c2)CCCCC1 (single isomer, unassigned) [58 E1, N-methyl-1-(1-(naphthalen-2-yl)cyclohexyl)ethanamine]
Serotonin transporter; Rat IC50 (nM) rSERT
  IC50: 9.5 nM
[1]; 1 mg/kg
  % Transporter Occupancy, DAT: 7%
  Mean Specific Binding (dpm) ± S.E.M., DAT: 15732 ± 1360 dpm
[1]; 3 mg/kg
  % Transporter Occupancy, DAT: 11%
  Mean Specific Binding (dpm) ± S.E.M., DAT: 14938 ± 2613 dpm
[1]; 10 mg/kg
  % Transporter Occupancy, DAT: -2%
  Mean Specific Binding (dpm) ± S.E.M., DAT: 17215 ± 2151 dpm
[1]; 30 mg/kg
  % Transporter Occupancy, DAT: 24%
  Mean Specific Binding (dpm) ± S.E.M., DAT: 12876 ± 2152 dpm
[2]; 1 mg/kg
  % Transporter Occupancy, SERT: 5%
  Mean Specific Binding (dpm) ± S.E.M., SERT: 3245 ± 107 dpm
[2]; 3 mg/kg
  % Transporter Occupancy, SERT: 11%
  Mean Specific Binding (dpm) ± S.E.M., SERT: 3021 ± 182 dpm
[2]; 10 mg/kg
  % Transporter Occupancy, SERT: 47%
  Mean Specific Binding (dpm) ± S.E.M., SERT: 1799 ± 115 dpm
[2]; 30 mg/kg
  % Transporter Occupancy, SERT: 86%
  Mean Specific Binding (dpm) ± S.E.M., SERT: 469 ±43 dpm

## CNC(C)C1(c2ccc3ccccc3c2)CCCCC1 (single isomer, unassigned) [58 E2, N-methyl-1-(1-(naphthalen-2-yl)cyclohexyl)ethanamine]
Serotonin transporter; Rat IC50 (nM) rSERT
  IC50: 100 nM

## NCC1(c2cccc3ccccc23)CCCCC1 [Compound 12, (1-(naphthalen-1-yl)cyclohexyl)methanamine]
Serotonin transporter; read-out: Rat IC50 (nM) rSERT
  IC50: 1100 nM
Dopamine transporter
  IC50: 1900 nM

## NCC1(c2ccc(OC(F)(F)F)cc2)CCCCC1 [Compound 15, (1-(4-(trifluoromethoxy)phenyl)cyclohexyl)methanamine]
[3]
  IC50: > 10000 nM
[4]
  IC50: > 10000 nM
[5]
  IC50: 1400 nM
